Experimental findings from ChEMBL document CHEMBL6134883, “Novel Piperidinylpyridinylcarbonitrile Derivatives as QPCT and QPCTL Inhibitors for Treating Cancer” (ACS Med Chem Lett, 2025) are described below.

As a reminder, the IC50 is the concentration at which inhibition is half-maximal.

A short description of this assay: Inhibition of N-terminal His/DDK-tagged recombinant human QPCTL extracted from HEK293T cells using QLLFNKTKSVEFTFC as substrate preincubated for 10 mins followed by substrate addition measured after 40 mins by MALDI-TOF MS analysis. Format: cell-free.
Take `Cn1cnnc1C1(F)CCN(c2c(C#N)cc(C(C)(C)O)nc2-c2cnc3nn(C(C)(C)C)c(Cl)c3c2)CC1`: the IC50 came to 1 nM. Take `Cc1ccccc1-c1ccc2c(-c3nccc(C#N)c3N3CCC(F)(c4nncn4C)CC3)cnn2n1`: the IC50 came to 1 nM.

Take `Cn1cnnc1C1(F)CCN(c2c(C#N)ccnc2-c2cnn3nc(-c4cccc(Cl)c4)ccc23)CC1`: the IC50 is 1 nM. The result for `Cn1cnnc1C1(F)CCN(c2c(C#N)cc(C(F)(F)F)nc2-c2cnc3nc(C(C)(C)C)oc3c2)CC1` reads 1 nM. For `Cc1ccc(-c2ccc3c(-c4nccc(C#N)c4N4CCC(F)(c5nncn5C)CC4)cnn3n2)c(C)c1`, the IC50 amounted to 1 nM. The result for `Cn1cnnc1C1(F)CCN(c2c(C#N)cc(C3CC3(F)F)nc2-c2cnc3nn(C(C)(C)C)cc3c2)CC1` (stereo unspecified) reads 1 nM.
